Results on two molecules are retold here after publication PMC4595804, “A strategy to discover decoy chemokine ligands with an anti-inflammatory activity” (Scientific Reports, 2015).

The structures appear in SMILES notation. Read-outs that look alike come from different tables or passages of the source.

For one series, the system named is HUT78 T cells. The series is described as follows: WST-1 metabolic activity assay. Type of series: cell-based, human. The conditions noted are these: 30 μM (highest concentration), 72 h. The source says:
WST-1 metabolic activity assay
The colorimetric WST-1 cell metabolic assay (Ozyme) was used to assess the cytotoxic effect of chemokine neutraligands. This is a cell viability test based on the enzymatic cleavage by the mitochondrial succinate-tetrazolium reductase of a tetrazolium salt, WST-1 (4-[3-(4-Iodophenyl)-2-(4-nitrophenyl)-2H-5-tetrazolio]-1,3 benzene disulfonate), into a water- […]
soluble formazan dye which can be detected by absorbance at 420-480nm. HUT78 T cells (or HaCat cells) were seeded on 24-well plates (200,000 cells per well) and were incubated […]
concentration ≤1% on cells). The background control was reserved as one well containing the culture medium only. The plates were incubated for 72h at 37°C. Three days later, the medium containing the neutraligands was removed, and WST-1 reagent (1:10 final dilution) (Ozyme) was added to each well for a 2h incubation at 37°C as the manufacturer’s recommendation. The plates were shaken and absorbance was measured at 450nm (reference wavelength 690nm) against the background control, using a multiwell plate reader (EnVision, Perkin Elmer). Assays were performed as three independent replicates. […]
(Heidelberg, Germany) and was cultured in Dulbecco’s Modified Eagle Medium (DMEM) (Invitrogen) supplemented with 10% fetal bovine serum (FBS) (Gibco-BRL), 100U/ml penicillin (Invitrogen), 100µg/ml streptomycin (Invitrogen) and 2mM L-glutamine (Invitrogen) at 37°C and 5% CO 2. The cells received fresh medium every other day and were subcultured every 10 days. HaCat cells were seeded in a 24-well plate (ESSEN Bioscience) at a density of 200,000 cells per well, and were allowed to grow until confluence. A scratch wound along the cell monolayer was created using the Essen woundmakerTM. Cells were washed twice with PBS to remove detached cells, and were treated with serum-free culture medium in the absence or presence of 100ng/ml chemokine (CCL22 or CCL17) preincubated with DMSO or […]
The molecules were also tested alone […]
without the chemokine. […] One […]
µg/ml of mitomycin C (Sigma-Aldrich) was added throughout the experiment in order to block cell proliferation. Once treated, the cells were immediately placed into the IncuCyteTM live-cell imaging, and the cell migration onto the wounded area was examined for 72h. Phase-contrast images acquired for each sample were captured every 2h (objective lens x10), and […]

The next series has as its target T1, CCL22 (Homo sapiens, UniProt O00626).
T1 construct: codes for the mature CCL17 or CCL22 with an N-terminal thioredoxin-hexahistidin (TRX- (His)6) tag; thioredoxin (TRX) (N, cleaved yes); (His)6 (N, cleaved yes); made in house; host or cells: E. coli BL21 (DE3)
T1 sequence (O00626 25-93): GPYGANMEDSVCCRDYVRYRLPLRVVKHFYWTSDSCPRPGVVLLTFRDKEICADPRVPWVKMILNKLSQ
The series can be described thus: TRIC-r calcium assay, neutraligand protocol: compound preincubated with CCL22, EGFP-CCR4+Gqi5+ HEK cells. The conditions noted are these: for inhibition at 5 µM: compound 5 µM, read-out: Inhibition of CCL22 calcium responses (%). Type of series: cell-based. The method, then: (§1) EGFP-CCR4^+Gqi5^+HEKcells were loaded with fluorescent Ca^2+-indicator Indo-1 AM (5μM, Interchim) for 45 min at 37 °C. […] Cells (100,000 cells/well, 100μl) were seeded in black clear bottom 96-well plates (Greiner), and centrifuged at 250 × g for 5 min.
(§2) Two plates (96-well plates, Greiner) were prepared for the screen: one containing test compounds alone in order to determine their direct agonistic activity, and another one containing test compounds mixed with CCL17 or CCL22 at room temperature for 1 h (neutraligand protocol). The chemokines and test compounds were prepared at a 3× concentration, while digitonin was prepared at a 4× concentration. The CCR4 antagonist, C-021 served as control in the experiment. In the antagonist protocol, compounds were added to the cell plate (one compound per well) and incubated with cells for 30 min at room temperature, while the agonist (CCL17 or CCL22) was added to the ligand plate only.
(§3) Dye loaded cells were placed in the FlexStation 3 (Molecular Devices). […] For the primary screening, the ligands (50μl of chemokine mixed with DMSO or test compounds) were added to the cells at 40 s, followed by digitonin addition (50μl) at 100 s to the cells. Molecules were screened at a final concentration of 2μg/ml with 5 nM CCL17 or CCL22. […] The calcium response values (height of peak response over baseline) were determined. Hits were selected by comparing the response amplitude at the time of the chemokine addition ± test compound. The Z’ factor[29] was calculated according to the following equation: Z’ = 1-(3SD+ + 3SD−)/|Ave+ − Ave−|, where SD+ and Ave+ are respectively the standard deviation and the mean value of the positive controls (chemokine + DMSO), while SD− and Ave− are respectively the standard deviation and the mean value of the negative controls (HEPES-BSA (0.1%) mixed with DMSO, or cells mixed with C-021). Hit molecules were confirmed by performing concentration-response curves and their half maximal inhibitory concentration (IC50) values were calculated using the Kaleidagraph software.

The target in a further series is T2, CCL17 (Homo sapiens, UniProt Q92583).
T2 construct: codes for the mature CCL17 or CCL22 with an N-terminal thioredoxin-hexahistidin (TRX- (His)6) tag; thioredoxin (TRX) (N, cleaved yes); (His)6 (N, cleaved yes); made in house; host or cells: E. coli BL21 (DE3)
T2 sequence (Q92583 24-94): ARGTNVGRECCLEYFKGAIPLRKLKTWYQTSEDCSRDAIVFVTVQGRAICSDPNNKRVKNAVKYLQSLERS
The series can be described thus: TRIC-r calcium assay, neutraligand protocol: compound preincubated with CCL17, EGFP-CCR4+Gqi5+ HEK cells. The class given is cell-based. The protocol: as §1, §2, §3

The subject of a further series is human monocytes. The series is described as follows: Cytotoxicity in primary monocytes (Alamar Blue). Type of series: cell-based. The conditions noted are these: up to 250 μM, 24 h. The method, then: the wound closure was determined as the difference between wound width at times 0 and 72h. This experiment was repeated three times.
Human primary monocytes were isolated from buffy coats of healthy human blood donors and seeded in 24-well plates (500,000 cells/ml in 1ml) for COX-1/2 activity or 96-well plates for cell viability experiments.
Cells were seeded in 96 well plates (5,000 cells/well in 200µl) for cytotoxicity testing (Alamar […]
doses). After 24h, cytotoxicity was evaluated in the wells using the Alamar Blue method. NaF (250µg/ml) was used as a control in this experiment.
Cyclooxygenase (COX) activity
COX1 mediated prostaglandin E2 (PGE2) release. Monocytes were treated with arachidonic […]
were then collected for the determination of PGE2 by enzyme immunoassay (EIA) […]
COX2 mediated prostaglandin E2 (PGE2) release. Monocytes were incubated with LPS (10U/ml) for 24h to induce COX2 protein synthesis. After renewal of medium (serum free), […]
before AA treatment. The activity of COX2 was determined by measuring PGE2 (Cayman) in the supernatants by EIA. Aspirin (10µM) and diclofenac (10µM) were used as control
For orientation: The colour change of resazurin is a common sign of viable cells or microbes.

[1] abbreviates: 10 μM compound, 5 nM chemokine, remaining response.

A word on the IC50: it is the concentration at which inhibition is half-maximal. What is called inhibition is the percentage by which the read-out fell short of the control. Regarding `O=C(OCC(O)CO)c1ccccc1O` (stereo not drawn) [GPN136, 2,3-dihydroxypropyl 2-hydroxybenzoate], in the series on HUT78 T cells, the “cytotoxic activity on HUT78 T cells (metabolic activity vs control non-treated cells)” value is listed as “no cytotoxic activity”. For the same molecule, the IC50 on CCL22 (5 nM CCL22 preincubated 1 h with compound, 21 °C, read-out: IC50 for CCL22 neutralization (calcium assay)) is 11.6 ± 2.5 µM. In addition, at CCL22 (HEK293, 2 μg/ml compound preincubated 1 h with 5 nM CCL22, read-out: inhibition of CCL22-induced calcium responses (primary screen)), the inhibition at 2 µg/mL turned out to be 46%. For the same molecule, the inhibition at 5 µM came out at 35 ± 8% at CCL22 (HEK293) and 0% on CCL17 (HEK293, compound 5 µM, read-out: Inhibition of CCL17 calcium responses (%)). Besides, at CCL17 (10 μM compound, 5 nM CCL17, EGFP-CCR4+ HEK cells), the “inhibition of CCL17-evoked calcium responses (selectivity)” value was “no effect”. Besides, the “cell toxicity on human monocytes (Alamar Blue)” value in the series with human monocytes is given as “absence of cell toxicity”.

As for `CC(C)=CCn1cnc2c1c(=O)n(C)c(=O)n2C` [GPN279, 1,3-dimethyl-7-(3-methylbut-2-enyl)-1H-purine-2,6(3H, 7H)-dione], the “cytotoxic activity on HUT78 T cells (metabolic activity vs control non-treated cells)” value in the series with HUT78 T cells was “no cytotoxic activity”. For the same molecule, at CCL22 (setting [1]), the “calcium response induced by WT CCL22 preincubated with compound” value is listed as “neither inhibited WT nor CCL22 mutants”. Further, the inhibition at 5 µM amounted to 0% at CCL22 (HEK293) and 42 ± 4% at CCL17 (HEK293, read-out: Inhibition of CCL17 calcium responses (%)). Moreover, at CCL17 (setting [1]), the “calcium response induced by WT CCL17 preincubated with compound” value was found to be 56.0 ± 5.0%. At CCL17 (HEK293, read-out: inhibition of CCL17-evoked calcium responses (selectivity)), the inhibition at 10 µM came to 40%. In addition, the inhibition at 2 µg/mL on CCL17 (HEK293, read-out: inhibition of CCL17-induced calcium responses (primary screen)) was found to be 42%. Moreover, the “cell toxicity on human monocytes (Alamar Blue)” value in the series with human monocytes is reported as “absence of cell toxicity”.
